Here are results for eleven compounds from patent US9884821B2, “N1-cyclic amine-N5-substituted biguanide derivatives, methods of preparing the same and pharmaceutical composition comprising the same” (IMMUNOMET THERAPEUTICS INC., priority 2013, dated 2018).

The subject of one experiment is AMPK. Description: AMPK activation effect (AMPK [pT172] ELISA) in MCF7 cells. It counts as cell-based, human. The note with it: 24 hours; for AMPK activation effect (%) 5 μM / AMPK activation effect (%) 10 μM / AMPK activation effect (%) 50 μM: AMPKα Thr172 phosphorylation relative to untreated cells; for AC150: concentration at which AMPK activation reached 150%. In a few lines:
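MCF7 cells in DMEM/10% FBS were treated 24 h with compounds at 5, 10 and 50 uM. Lysates (20 μg protein) were assayed by ELISA for AMPKα Thr172 phosphorylation as the activation read-out.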
In general terms: ELISA stands for enzyme-linked immunosorbent assay.

The next experiment has as its system HCT116 cells. Description: Effect of inhibiting cancer cell proliferation (MTT) in HCT116 cells. It is filed as cell-based, human. The note with it: for inhibition at 25 µM: read-out: Cell growth inhibition (%) at 25 μM. In a few lines: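 HCT116 colorectal cells (about 5,000 per well, DMEM with 10% FBS) treated with 100, 25, 6.25, 1.56 or 0.39 μM compound for 48 h. MTT added for 3 h, formazan read at 560 nm; GIC50 taken from viability relative to untreated cells.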

“And” between values parts separate entries of the source, which are not always exact repeats. Equal values may be shown once. Where a name gives a salt, the structure may show the parent alone.

The GI50 is the concentration at which growth is held to half of that of the control. What is called inhibition is the change of the read-out against control, counted positive when it falls. Consider `CC1CCCC(C)N1C(=N)NC(=N)Nc1cccc(OC(F)(F)F)c1.Cl` (stereo not drawn) [Example 90, N1-(2,6-dimethyl)piperidine-N5-(3-trifluoromethoxy)phenyl biguanide hydrochloride], for which, in the experiment with AMPK, the “AMPK activation effect (%) 5 μM” value came out at 281%, the “AMPK activation effect (%) 10 μM” value was determined as 317% and the AC150 stood at 0.8 µM. Further, in the experiment on HCT116 cells (Homo sapiens, HCT-116, 48 h), the GI50 is 3.2 µM and the inhibition at 25 µM is 100%.

Take `CC1CCCC(C)N1C(=N)NC(=N)Nc1ccc(C(F)(F)F)cc1.Cl` (stereo not drawn) [Example 91, N1-(2,6-dimethyl)piperidine-N5-(4-trifluoromethyl)phenyl biguanide hydrochloride]: in the experiment with AMPK, the “AMPK activation effect (%) 5 μM” value is recorded as 108%, the “AMPK activation effect (%) 10 μM” value was 214% and the AC150 came to 5.6 µM. Also, in the experiment with HCT116 cells (Homo sapiens, HCT-116, 48 h), the GI50 worked out at 11.4 µM and the inhibition at 25 µM worked out at 100%.

Turning to `CC1CCCC(C)N1C(=N)NC(=N)Nc1cccc(C(F)(F)F)c1.Cl` (stereo not drawn) [Example 92, N1-(2,6-dimethyl)piperidine-N5-(3-trifluoromethyl)phenyl biguanide hydrochloride], in the experiment on AMPK, the “AMPK activation effect (%) 5 μM” value was found to be 324%, the “AMPK activation effect (%) 10 μM” value is recorded as 417% and the AC150 was 0.8 µM. Besides, in the experiment with HCT116 cells (Homo sapiens, HCT-116, 48 h), the GI50 was 7.5 µM and the inhibition at 25 µM was 100%.

`CC1CCCC(C)N1C(=N)NC(=N)Nc1ccc(F)c(C(F)(F)F)c1.Cl` (stereo not drawn) [Example 93, N1-(2,6-dimethyl)piperidine-N5-(4-fluoro, 3-trifluoromethyl)phenyl biguanide hydrochloride]: in the experiment with AMPK, the “AMPK activation effect (%) 5 μM” value worked out at 190%, the “AMPK activation effect (%) 10 μM” value is recorded as 422% and the AC150 amounted to 2.0 µM. In the experiment on HCT116 cells (Homo sapiens, HCT-116, 48 h), growth was halved (GI50) at 3 µM and the inhibition at 25 µM is 100%.

Turning to `CC1CCCC(C)N1C(=N)NC(=N)Nc1ccc(Cl)c(C(F)(F)F)c1.Cl` (stereo not drawn) [Example 94, N1-(2,6-dimethyl)piperidine-N5-(4-chloro, 3-trifluoromethyl)phenyl biguanide hydrochloride], in the experiment with AMPK, the “AMPK activation effect (%) 5 μM” value worked out at 328%, the “AMPK activation effect (%) 10 μM” value is recorded as 643% and the AC150 stood at 1.1 µM. Also, in the experiment with HCT116 cells (Homo sapiens, HCT-116, 48 h), the GI50 is 2.8 µM and the inhibition at 25 µM worked out at 100%.

Regarding `CC1CCCC(C)N1C(=N)NC(=N)Nc1ccc(OC(F)(F)F)c(F)c1.Cl` (stereo not drawn) [Example 95, N1-(2,6-dimethyl)piperidine-N5-(3-fluoro, 4-trifluoromethoxy)phenyl biguanide], in the experiment with AMPK, the “AMPK activation effect (%) 5 μM” value is 130%, the “AMPK activation effect (%) 10 μM” value was determined as 326% and the AC150 was determined as 3.1 µM. In the experiment on HCT116 cells (Homo sapiens, HCT-116, 48 h), growth was halved (GI50) at 2.9 µM and the inhibition at 25 µM came to 101%.

As for `CC1CCCC(C)N1C(=N)NC(=N)Nc1ccc(Cl)cc1.Cl` (stereo not drawn) [Example 96, N1-(2,6-dimethyl)piperidine-N5-(4-chloro)phenyl biguanide hydrochloride], in the experiment on AMPK, the “AMPK activation effect (%) 5 μM” value turned out to be 240%, the “AMPK activation effect (%) 10 μM” value is 395% and the AC150 stood at 1.8 µM. Also, in the experiment with HCT116 cells (Homo sapiens, HCT-116, 48 h), the concentration for 50% growth inhibition (GI50) worked out at 10.4 µM and the inhibition at 25 µM came to 101%.

Regarding `CC1CCCC(C)N1C(=N)NC(=N)Nc1ccc(Br)cc1` (stereo not drawn) [Example 97, N1-(2,6-dimethyl)piperidine-N5-(4-bromo)phenyl biguanide hydrochloride], in the experiment on AMPK, the “AMPK activation effect (%) 5 μM” value was 143%, the “AMPK activation effect (%) 10 μM” value was determined as 233% and the AC150 was determined as 4.2 µM. In addition, in the experiment on HCT116 cells (Homo sapiens, HCT-116, 48 h), the GI50 was 9.1 µM and the inhibition at 25 µM was found to be 100%.

Take `CC1CCCC(C)N1C(=N)NC(=N)Nc1ccc(F)cc1.Cl` (stereo not drawn) [Example 98, N1-(2,6-dimethyl)piperidine-N5-(4-fluoro)phenyl biguanide hydrochloride]: in the experiment with AMPK, the “AMPK activation effect (%) 5 μM” value turned out to be 239%, the “AMPK activation effect (%) 10 μM” value was found to be 244% and the AC150 is 2.8 µM. In addition, in the experiment with HCT116 cells (Homo sapiens, HCT-116, 48 h), the GI50 came out at 45.4 µM and the inhibition at 25 µM stood at 28.2%.

`CN(C)C(=N)N=C(N)N` [Metformin, reference compound]: in the experiment on AMPK, the “AMPK activation effect (%) 50 μM” value is 130% and 130 (at 50 μM) %. Also, the “Cell growth inhibition (%) at 100 μM” value in the experiment with HCT116 cells (100 μM, 48 hours) is reported as 6.5 (at 100 μM ) %. The compound also yielded a GI50 in the experiment with HCT116 cells (Homo sapiens, HCT-116, 48 h) of 2170 µM. For the same compound, in the experiment on HCT116 cells (Homo sapiens, HCT-116, 48 h, 100 μM, read-out: Cell growth inhibition (%) at 100 μM), the inhibition at 100 µM worked out at 6.5%.

Take “N1-1,2-dihydropyrrole-N5-(4-methyl)phenyl biguanide hydrochloride [Example 50]”: in the experiment on AMPK, the “AMPK activation effect (%) 10 μM” value was determined as 317%, the “AMPK activation effect (%) 50 μM” value is given as 440% and the AC150 is 1.4 µM. Besides, in the experiment on HCT116 cells (100 μM, 48 hours), the “Cell growth inhibition (%) at 100 μM” value is 46.0%. The compound further returned a GI50 in the experiment on HCT116 cells (48 hours) of 117 µM.
